The EC50 is the concentration at which the effect is half-maximal.

Experimental findings from patent US11617777B2, “Cytotoxic and anti-mitotic compounds, and methods of using the same” (ZYMEWORKS BC INC., priority 2013, dated 2023) are described below.

SMILES strings stand for the structures. Like-named read-outs stand apart in the source and are kept apart here.

The experiment has as its system Jurkat cells. The experiment in a line: Cytotoxicity of compounds, CellTiter-Glo. The conditions noted are these: Homo sapiens, Jurkat, read-out: EC50. It counts as cell-based, Human. The source says:
Cell lines used: Human T-cell leukemia cell line Jurkat (ATCC: TIB-152); HCC1954 (ATCC: CRL. 2338); Human Pancreatic cells lines: AsPC-1 (ATCC: CRL-1682), BxPC-3 (ATCC: CRL.1687), HPAF-II (ATCC: CRL.1997), MiaPaCa2 (ATCC: CRL.1420), PANC-1 (ATCC: CRL.1469), Capan-1 (ATCC: HTB-79), Capan-2 (ATCC: HTB-80) and the Human gastric carcinoma cell line NCI-N87 (ATCC: CRL. 5822); AML-193 (ATCC: CRL.9589), CCRF-CEM (ATCC: CCL-119), DU145 (ATCC: HTB-81), PC-3 (ATCC: CRL.1435), A-431 (ATCC: CRL.1555), HT-29 (ATCC: HTB-38), A-172 (ATCC: CRL.1620), NCI-H358 (ATCC: CRL.5807), A549 (ATCC: CCL-185), Colo-205 (ATCC: CCL-222), MDA-MB-231 (ATCC: HTB-26), OVCAR-3 (ATCC: HTB-161), OV-90 (ATCC: CRL.11732), OE19 (Sigma: 96071721), RT 112/84 (Sigma: 85061106).
On the day prior to adding compounds, HCC1954 AsPC-1, BxPC-3, HPAF-II, MiaPaCa2, PANC-1, Capan-1, Capan-2 and NCI-N87 cells were added to opaque-walled 96-well tissue culture-treated microtiter plates using complete growth medium at a density of 2500 cells/100 microlitre (uL) of medium. These adherant cell lines cells were incubated for one night at 37° C./5% CO2 to allow the cells to attach to the microtiter plate surface. On the day that compounds were added, Jurkat cells are added to separate 96-well microtiter plates at 2500 cells/100 uL using the same growth medium as HCC1954. Compound were first serially diluted using dimethyl sulfoxide, and then the prepared dilutions are added to complete growth medium at five-times the final concentration—compounds were then titrated 1:3, eight steps. A control with no compound (growth medium alone) was included on each microtiter plate in sextuplicate. The prepared compounds titrations were added (twenty-five uL/well) in triplicate. The cells and compound titrations were incubated at 37° C./5% CO2 for three nights. After the incubation, cell viability is measured using CellTiter-Glo® reagent by adding thirty uL of prepared CellTiter-Glo® to each assay well. The assay is incubated for at least twenty minutes in the dark prior to measuring emitted luminescence using a microplate luminometer (500 ms integration time). The collected relative luminescence units (RLU) are converted to % cytotoxicity using the Growth medium alone control mentioned above (% Cytotoxicity=1−[Well RLU/average medium alone control RLU]).
GraphPad Prism was used for generation of EC50 values using three parameter non-linear regression curve fitting.
In general terms: Cellular ATP, detected with luciferase, serves as a proxy for viable cell number.

The mark [1] stands for this setting: Table 3, Cytotoxicity of Compounds on Jurkat Cells.
The mark [2] stands for this setting: Table 6, Compound Cytotoxicity on Jurkat.

Consider `CN[C@H](C(=O)N[C@H](C(=O)N1CCCCC1C=C(C)C(=O)NS(=O)(=O)c1ccc(CS)cc1)C(C)(C)C)C(C)(C)c1ccccc1` (mixture of isomers) [Compound 118, (S)—N—((S)-1-(2-(3-(4-(mercaptomethyl)phenylsulfonamido)-2-methyl-3-oxoprop-1-enyl)piperidin-1-yl)-3,3-dimethyl-1-oxobutan-2-yl)-3-methyl-2-(methylamino)-3-phenylbutanamide], for which the concentration for a half-maximal effect (EC50) under setting [1] was determined as 13 nM.
The same measure, in the same setting: with `CN[C@H](C(=O)N[C@H](C(=O)N(C)[C@H](/C=C(\C)C(=O)NS(=O)(=O)c1c(C)cc(C)cc1C)C(C)C)C(C)(C)C)C(C)(C)c1ccccc1` [Compound 12, (S,E)-N-(mesitylsulfonyl)-2,5-dimethyl-4-((S)—N,3,3-trimethyl-2-((S)-3-methyl-2-(methylamino)-3-phenylbutanamido)butanamido)hex-2-enamide] the figure was 0.03 nM.
`CN[C@H](C(=O)N[C@H](C(=O)N(C)[C@H](/C=C(\C)C(=O)NS(=O)(=O)c1ccc(OC(F)(F)F)cc1)C(C)C)C(C)(C)C)C(C)(C)c1ccccc1` [Compound 13, (S,E)-2,5-dimethyl-N-(4-(trifluoromethoxy)phenylsulfonyl)-4-((S)—N,3,3-trimethyl-2-((S)-3-methyl-2-(methylamino)-3-phenylbutanamido)butanamido)hex-2-enamide]: the EC50 came to 0.038 nM under setting [1] and 1.51 nM under setting [2].
In the case of `CN[C@H](C(=O)N[C@H](C(=O)N(C)[C@H](/C=C(\C)C(=O)NS(=O)(=O)c1c(C(C)C)cc(C(C)C)cc1C(C)C)C(C)C)C(C)(C)C)C(C)(C)c1ccccc1` [Compound 15, (S,E)-2,5-dimethyl-N-(2,4,6-triisopropylphenylsulfonyl)-4-((S)—N,3,3-trimethyl-2-((S)-3-methyl-2-(methylamino)-3-phenylbutanamido)butanamido)hex-2-enamide], under setting [1], the EC50 was 7.6 nM.
Same read-out and setting: with `CN[C@H](C(=O)N[C@H](C(=O)N(C)[C@H](/C=C(\C)C(=O)NS(=O)(=O)c1ccc(C(C)(C)C)cc1)C(C)C)C(C)(C)C)C(C)(C)c1ccccc1` [Compound 16, (S,E)-N-(4-tert-butylphenylsulfonyl)-2,5-dimethyl-4-((S)—N,3,3-trimethyl-2-((S)-3-methyl-2-(methylamino)-3-phenylbutanamido)butanamido)hex-2-enamide] the figure was 0.041 nM.
Take `CN[C@H](C(=O)N[C@H](C(=O)N(C)[C@H](/C=C(\C)C(=O)NS(=O)(=O)c1ccc(Cl)cc1)C(C)C)C(C)(C)C)C(C)(C)c1ccccc1` [Compound 17, (S,E)-N-(4-chlorophenylsulfonyl)-2,5-dimethyl-4-((S)—N,3,3-trimethyl-2-((S)-3-methyl-2-(methylamino)-3-phenylbutanamido)butanamido)hex-2-enamide]: the EC50 under setting [1] came to 0.325 nM.
Still for that read-out and setting: the result for `CN[C@H](C(=O)N[C@H](C(=O)N(C)[C@H](/C=C(\C)C(=O)NS(=O)(=O)c1cccc(C#N)c1)C(C)C)C(C)(C)C)C(C)(C)c1ccccc1` [Compound 18, (S,E)-N-(3-cyanophenylsulfonyl)-2,5-dimethyl-4-((S)—N,3,3-trimethyl-2-((S)-3-methyl-2-(methylamino)-3-phenylbutanamido)butanamido)hex-2-enamide] reads 1.36 nM; that for `CN[C@H](C(=O)N[C@H](C(=O)N(C)[C@H](/C=C(\C)C(=O)NS(=O)(=O)c1ccccc1[N+](=O)[O-])C(C)C)C(C)(C)C)C(C)(C)c1ccccc1` [Compound 19, (S,E)-2,5-dimethyl-N-(2-nitrophenylsulfonyl)-4-((S)—N,3,3-trimethyl-2-((S)-3-methyl-2-(methylamino)-3-phenylbutanamido)butanamido)hex-2-enamide], 0.152 nM.
Turning to `CN[C@H](C(=O)N[C@H](C(=O)N(C)[C@H](/C=C(\C)C(=O)NS(=O)(=O)c1ccccc1)C(C)C)C(C)(C)C)C(C)(C)c1ccccc1` [Compound 25, (S,E)-2,5-dimethyl-N-(phenylsulfonyl)-4-((S)—N,3,3-trimethyl-2-((S)-3-methyl-2-(methylamino)-3-phenylbutanamido)butanamido)hex-2-enamide], the EC50 under setting [1] turned out to be 0.05 nM.
Still for that read-out and setting: with `CN[C@H](C(=O)N[C@H](C(=O)N(C)[C@H](/C=C(\C)C(=O)NS(=O)(=O)NCc1ccccc1F)C(C)C)C(C)(C)C)C(C)(C)c1ccccc1` [Compound 26, (S,E)-N—(N-(2-fluorobenzyl)sulfamoyl)-2,5-dimethyl-4-((S)—N,3,3-trimethyl-2-((S)-3-methyl-2-(methylamino)-3-phenylbutanamido)butanamido)hex-2-enamide] the figure was 0.105 nM; with `CN[C@H](C(=O)N[C@H](C(=O)N(C)[C@H](/C=C(\C)C(=O)NS(=O)(=O)N1CCCCC1)C(C)C)C(C)(C)C)C(C)(C)c1ccccc1` [Compound 27, (S,E)-2,5-dimethyl-N-(piperidin-1-ylsulfonyl)-4-((S)—N,3,3-trimethyl-2-((S)-3-methyl-2-(methylamino)-3-phenylbutanamido)butanamido)hex-2-enamide], 0.157 nM; with `CN[C@H](C(=O)N[C@H](C(=O)N(C)[C@H](/C=C(\C)C(=O)NS(=O)(=O)c1ccc(Br)cc1)C(C)C)C(C)(C)C)C(C)(C)c1ccccc1` [Compound 29, (S,E)-N-(4-bromophenylsulfonyl)-2,5-dimethyl-4-((S)—N,3,3-trimethyl-2-((S)-3-methyl-2-(methylamino)-3-phenylbutanamido)butanamido)hex-2-enamide], 0.121 nM.
As for `CN[C@H](C(=O)N[C@H](C(=O)N(C)[C@H](/C=C(\C)C(=O)NS(=O)(=O)c1ccc2ccccc2c1)C(C)C)C(C)(C)C)C(C)(C)c1ccccc1` [Compound 30, (S,E)-2,5-dimethyl-N-(naphthalen-2-ylsulfonyl)-4-((S)—N,3,3-trimethyl-2-((S)-3-methyl-2-(methylamino)-3-phenylbutanamido)butanamido)hex-2-enamide], under setting [1], the EC50 came to 0.109 nM.
For `CN[C@H](C(=O)N[C@H](C(=O)N(C)[C@H](/C=C(\C)C(=O)NS(=O)(=O)NCc1ccccc1C(F)(F)F)C(C)C)C(C)(C)C)C(C)(C)c1ccccc1` [Compound 32, (S,E)-2,5-dimethyl-N—(N-(2-(trifluoromethyl)benzyl)sulfamoyl)-4-((S)—N,3,3-trimethyl-2-((S)-3-methyl-2-(methylamino)-3-phenylbutanamido)butanamido)hex-2-enamide], the EC50 under setting [1] was found to be 0.265 nM.
`CCCCC(C)S(=O)(=O)NC(=O)/C(C)=C/[C@H](C(C)C)N(C)C(=O)[C@@H](NC(=O)[C@@H](NC)C(C)(C)c1ccccc1)C(C)(C)C` (stereo partly drawn) [Compound 33, (4S,E)-N-(hexan-2-ylsulfonyl)-2,5-dimethyl-4-((S)—N,3,3-trimethyl-2-((S)-3-methyl-2-(methylamino)-3-phenylbutanamido)butanamido)hex-2-enamide]: the EC50 under setting [2] was determined as 0.636 nM.
Take `CN[C@H](C(=O)N[C@H](C(=O)N(C)[C@H](/C=C(\C)C(=O)NS(=O)(=O)CCOC)C(C)C)C(C)(C)C)C(C)(C)c1ccccc1` [Compound 34, (S,E)-N-(2-methoxyethylsulfonyl)-2,5-dimethyl-4-((S)—N,3,3-trimethyl-2-((S)-3-methyl-2-(methylamino)-3-phenylbutanamido)butanamido)hex-2-enamide]: the EC50 under setting [1] was 0.2 nM.
On to `CN[C@H](C(=O)N[C@H](C(=O)N(C)[C@H](/C=C(\C)C(=O)NS(=O)(=O)CC1CCCC1)C(C)C)C(C)(C)C)C(C)(C)c1ccccc1` [Compound 35, (S,E)-N-(cyclopentylmethylsulfonyl)-2,5-dimethyl-4-((S)—N,3,3-trimethyl-2-((S)-3-methyl-2-(methylamino)-3-phenylbutanamido)butanamido)hex-2-enamide], for which the EC50 under setting [2] came to 0.832 nM.
Regarding `CN[C@H](C(=O)N[C@H](C(=O)N(C)[C@H](/C=C(\C)C(=O)NS(=O)(=O)Cc1ccccc1)C(C)C)C(C)(C)C)C(C)(C)c1ccc(N=[N+]=[N-])cc1` [Compound 42, (S,E)-4-((S)-2-((S)-3-(4-azidophenyl)-3-methyl-2-(methylamino)butanamido)-N,3,3-trimethylbutanamido)-N-(benzylsulfonyl)-2,5-dimethylhex-2-enamide], the EC50 under setting [1] came to 0.165 nM.
